Data from US20090253669A1, “Substituted Sulfonamide Compounds” (GRUENENTHAL GmbH, priority 2008, published 2009).

How the values were obtained:
[1] = target: T1, B1R receptor of the rat (rB1R) (Rattus norvegicus, UniProt P97583); assay: FLIPR Ca2+ assay on rB1R-transfected CHO K1 cells, antagonistic action; type: cell-based; details: CHO-K1, 10 μM test substance; agonist Des-Arg9-bradykinin 100 nM; % of maximum achievable inhibition; read-out: rB1R [10 μM] % inhibition
T1 construct: host or cells: CHO K1 cells
T1 sequence (P97583 1-337): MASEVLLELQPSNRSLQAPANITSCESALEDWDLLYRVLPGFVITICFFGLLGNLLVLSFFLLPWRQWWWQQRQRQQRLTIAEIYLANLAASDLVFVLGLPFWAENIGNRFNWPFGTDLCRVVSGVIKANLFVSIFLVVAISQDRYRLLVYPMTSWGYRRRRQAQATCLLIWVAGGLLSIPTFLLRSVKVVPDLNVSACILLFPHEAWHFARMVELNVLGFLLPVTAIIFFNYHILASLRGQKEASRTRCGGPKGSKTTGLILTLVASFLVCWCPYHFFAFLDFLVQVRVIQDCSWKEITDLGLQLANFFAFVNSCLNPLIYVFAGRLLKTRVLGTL

[2] = target: T2, human B1R receptor (hB1R) (Homo sapiens, UniProt P46663); assay: FLIPR Ca2+ assay on hB1R-transfected CHO K1 cells, antagonistic action; type: cell-based; details: CHO-K1, 10 μM test substance; agonist Lys-Des-Arg9-bradykinin 0.5 nM; % of maximum achievable inhibition; read-out: hB1R [10 μM] % inhibition
T2 construct: host or cells: CHO K1 cells
T2 sequence (P46663 1-353): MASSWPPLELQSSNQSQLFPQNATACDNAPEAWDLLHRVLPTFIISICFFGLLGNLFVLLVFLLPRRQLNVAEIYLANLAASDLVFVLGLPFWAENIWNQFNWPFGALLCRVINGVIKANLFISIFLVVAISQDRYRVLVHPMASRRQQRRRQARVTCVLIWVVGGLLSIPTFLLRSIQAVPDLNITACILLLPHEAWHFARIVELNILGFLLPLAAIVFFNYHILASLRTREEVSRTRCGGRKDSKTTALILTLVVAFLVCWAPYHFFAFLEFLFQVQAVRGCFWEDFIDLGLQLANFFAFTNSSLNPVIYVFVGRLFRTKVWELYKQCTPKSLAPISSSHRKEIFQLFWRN

Row | Compound | inhibition at 10 µM [1] | inhibition at 10 µM [2]
1 | Cc1cc(S(=O)(=O)N2CCCCC2CCC(=O)N(C)CCC2CCC(CCc3ccccc3)(N3CCCC3)CC2)c(C)cc1Cl (centres unmarked) [Compound 131, 3-(1-(4-chloro-2,5-dimethylphenylsulfonyl)piperidin-2-yl)-N-methyl-N-(2-(4-phenethyl-4-(pyrrolidin-1-yl)cyclohexyl)ethyl)propanamide] | 47% | 99%
2 | COc1cc(C)c(S(=O)(=O)N2CCCCC2COCC(=O)N(C)CCC2CCC(Cc3ccccc3)(N3CCCC3)CC2)c(C)c1 (centres unmarked) [Compound 68, N-(2-(4-benzyl-4-(pyrrolidin-1-yl)cyclohexyl)ethyl)-2-((1-(4-methoxy-2,6-dimethylphenylsulfonyl)piperidin-2-yl)methoxy)-N-methylacetamide] | 100% | 103%
3 | COc1cc(C)c(S(=O)(=O)N2CCC(OCC(=O)N(C)CC3CCC(Cc4ccccc4)(N4CCN(C)CC4)CC3)C2)c(C)c1 (centres unmarked) [Compound 174, N-((4-benzyl-4-(4-methylpiperazin-1-yl)cyclohexyl)methyl)-2-(1-(4-methoxy-2,6-dimethylphenylsulfonyl)pyrrolidin-3-yloxy)-N-methylacetamide] | 78% | 99%
4 | COc1ccc(S(=O)(=O)N2CCCCC2CCOCC(=O)NC2CCC(c3ccccc3)(N(C)C)CC2)cc1 (centres unmarked) [Compound 19, N-(4-(dimethylamino)-4-phenylcyclohexyl)-2-(2-(1-(4-methoxyphenylsulfonyl)piperidin-2-yl)ethoxy)acetamide] | 73% | 51%
5 | O=C(COCC1CCCCN1S(=O)(=O)c1c(Cl)cc(Cl)cc1Cl)NC1CCC(Cc2ccccc2)(N2CCCC2)CC1 (centres unmarked) [Compound 163, N-(4-benzyl-4-(pyrrolidin-1-yl)cyclohexyl)-2-((1-(2,4,6-trichlorophenylsulfonyl)piperidin-2-yl)methoxy)acetamide] | 93% | 84%
6 | COc1cc(C)c(S(=O)(=O)N2CCCCC2COCC(=O)NCC2CCC(c3ccccc3)(N3CCOCC3)CC2)c(C)c1 (centres unmarked) [Compound 157, 2-((1-(4-methoxy-2,6-dimethylphenylsulfonyl)piperidin-2-yl)methoxy)-N-((4-morpholino-4-phenylcyclohexyl)methyl)acetamide] | 99% | 76%
7 | COc1cc(C)c(S(=O)(=O)N2CCCCC2COCC(=O)N(C)CCC2CCC(c3ccccc3)(N(C)C)CC2)c(C)c1 (centres unmarked) [Compound 81, N-(2-(4-(dimethylamino)-4-phenylcyclohexyl)ethyl)-2-((1-(4-methoxy-2,6-dimethylphenylsulfonyl)piperidin-2-yl)methoxy)-N-methylacetamide] | 99% | 104%
8 | CN1CCN(C2(c3cccc(F)c3)CCN(C(=O)COCC3CCc4ccccc4N3S(=O)(=O)c3ccc4ccccc4c3)CC2)CC1 (centres unmarked) [Compound 228, 1-(4-(3-Fluorophenyl)-4-(4-methylpiperazin-1-yl)piperidin-1-yl)-2-((1-(naphthalen-2-ylsulfonyl)-1,2,3,4-tetrahydroquinolin-2-yl)methoxy)ethanone] | 101% | 100%
9 | O=C(CC1c2ccccc2CCN1S(=O)(=O)c1ccc(Cl)c(Cl)c1)NC1CCC(Cc2ccccc2)(N2CCCCCC2)CC1 (centres unmarked) [Compound 16, N-(4-(azepan-1-yl)-4-benzylcyclohexyl)-2-(2-(3,4-dichlorophenylsulfonyl)-1,2,3,4-tetrahydroisoquinolin-1-yl)acetamide] | 80% | 91%
10 | CN(CCC1CCC(Cc2ccccc2)(N(C)C)CC1)C(=O)CC1CCCCN1S(=O)(=O)c1cccc(C(F)(F)F)c1 (centres unmarked) [Compound 95, N-(2-(4-benzyl-4-(dimethylamino)cyclohexyl)ethyl)-N-methyl-2-(1-(3-(trifluoromethyl)phenylsulfonyl)piperidin-2-yl)acetamide] | 93% | 99%
